Tests used:
[1] = European Public Assessment Report provided for SUTENT; cited from earlier work
[2] = solubility profile of sunitinib base as observed by applicants; format: physicochemical; conditions: sunitinib base obtained in the prior art (Form III); qualitative observation
Description: In this regard, the low solubility of sunitinib base Form III would involve the use of large amounts of suitable solvents or mixture of solvents and/or the use of particular conditions aimed to improve the solubility of sunitinib base Form III and/or long reaction times for processes using sunitinib, which may represent an important drawback, especially for processes on an industrial scale.

| Structure (SMILES) | solubility class according to the biopharmaceutical classification [1] | solubility profile [2] |
| --- | --- | --- |
| CCN(CC)CCNC(=O)c1c(C)[nH]c(/C=C2\C(=O)Nc3ccc(F)cc32)c1C [sunitinib, N-[2-(diethylamino)ethyl]-5-[(Z)-(5-fluoro-1,2-dihydro-2-oxo-3H-indol-3-ylidine)methyl]-2,4-dimethyl-1H-pyrrole-3-carboxamide] | low solubility compound |  |
| CCN(CC)CCNC(=O)c1c(C)[nH]c(/C=C2\C(=O)Nc3ccc(F)cc32)c1C [sunitinib base Form III, N-[2-(diethylamino)ethyl]-5-[(Z)-(5-fluoro-1,2-dihydro-2-oxo-3H-indol-3-ylidine)methyl]-2,4-dimethyl-1H-pyrrole-3-carboxamide] |  | low solubility profile |

From patent publication US8389562B2, “Polymorphic forms of a 3-pyrrole substituted 2-indolinone” (Medichem, S.A., priority 2007, dated 2013)
